{
  "source": "paper PMC6468293",
  "about": "“Double autoinhibition mechanism of signal transduction ATPases with numerous domains (STAND) with a tetratricopeptide repeat sensor” (Nucleic Acids Research, 2019)",
  "molecules": {"B1": {"name": "His6-tagged MalT (Escherichia coli maltose system regulator), wild type (natural protein, E. coli, UniProt P06993 1-901, looked up)", "chain": "MLIPSKLSRPVRLDHTVVRERLLAKLSGANNFRLALITSPAGYGKTTLISQWAAGKNDIGWYSLDEGDNQQERFASYLIAAVQQATNGHCAICETMAQKRQYASLTSLFAQLFIELAEWHSPLYLVIDDYHLITNPVIHESMRFFIRHQPENLTLVVLSRNLPQLGIANLRVRDQLLEIGSQQLAFTHQEAKQFFDCRLSSPIEAAESSRICDDVSGWATALQLIALSARQNTHSAHKSARRLAGINASHLSDYLVDEVLDNVDLATRHFLLKSAILRSMNDALITRVTGEENGQMRLEEIERQGLFLQRMDDTGEWFCYHPLFGNFLRQRCQWELAAELPEIHRAAAESWMAQGFPSEAIHHALAAGDALMLRDILLNHAWSLFNHSELSLLEESLKALPWDSLLENPQLVLLQAWLMQSQHRYGEVNTLLARAEHEIKDIREDTMHAEFNALRAQVAINDGNPDEAERLAKLALEELPPGWFYSRIVATSVLGEVLHCKGELTRSLALMQQTEQMARQHDVWHYALWSLIQQSEILFAQGFLQTAWETQEKAFQLINEQHLEQLPMHEFLVRIRAQLLWAWARLDEAEASARSGIEVLSSYQPQQQLQCLAMLIQCSLARGDLDNARSQLNRLENLLGNGKYHSDWISNANKVRVIYWQMTGDKAAAANWLRHTAKPEFANNHFLQGQWRNIARAQILLGEFEPAEIVLEELNENARSLRLMSDLNRNLLLLNQLYWQAGRKSDAQRVLLDALKLANRTGFISHFVIEGEAMAQQLRQLIQLNTLPELEQHRAQRILREINQHHRHKFAHFDENFVERLLNHPEVPELIRTSPLTQREWQVLGLIYSGYSNEQIAGELEVAATTIKTHIRNLYQKLGVAHRQDAVQHAQQLLKMMGYGV", "notes": "MalT, E. coli, His-tagged version encoded by pOM206 (pET24a(+) derivative); Purified in two buffers (with ATP/KCl; or K3 citrate without nucleotide) to serve as control for the variants; Details of the plasmid are in the Supplementary Materials and Methods; also called wt MalT; wild-type MalT; source: E. coli pop8012 (a BL21 ΔmalT strain) with pOM206, purified (nickel-agarose chromatography, …)"}, "B2": {"name": "His6-tagged MalT^M96C (natural protein, E. coli, UniProt P06993 1-901, looked up)", "chain": "B1 chain with M96C", "notes": "MalT, E. coli, His-tagged, pOM206 derivative; source: E. coli pop8012 (a BL21 ΔmalT strain) with a pOM206 derivative, purified (nickel-agarose chromatography, Superdex 200)"}, "B3": {"name": "His6-tagged MalT^H562C (natural protein, E. coli, UniProt P06993 1-901, looked up)", "chain": "B1 chain with H562C", "notes": "as for B2"}, "B4": {"name": "His6-tagged MalT^M96C,H562C (natural protein, E. coli, UniProt P06993 1-901, looked up)", "chain": "B1 chain with M96C, H562C", "notes": "as for B2"}, "B5": {"name": "His6-tagged MalT^M96T (natural protein, E. coli, UniProt P06993 1-901, looked up)", "chain": "B1 chain with M96T", "notes": "MalT, E. coli, His-tagged, pOM206 derivative; About 20% aggregated after purification without nucleotide; concentration was corrected for this; also called M96T variant"}},
  "key": {"PH0952ΔN": {"target": "T1, PH0952ΔN (Pyrococcus horikoshii, UniProt O58663)", "T1 construct": "gene PH0952; NBD 102-262, HD 263-316, WHD 317-393, arm 394-496, TPR sensor 497-748; from E. coli Rosetta (DE3), intein tag cleaved; monomeric resting form", "T1 sequence (O58663 entry or part of it, stated change not applied)": "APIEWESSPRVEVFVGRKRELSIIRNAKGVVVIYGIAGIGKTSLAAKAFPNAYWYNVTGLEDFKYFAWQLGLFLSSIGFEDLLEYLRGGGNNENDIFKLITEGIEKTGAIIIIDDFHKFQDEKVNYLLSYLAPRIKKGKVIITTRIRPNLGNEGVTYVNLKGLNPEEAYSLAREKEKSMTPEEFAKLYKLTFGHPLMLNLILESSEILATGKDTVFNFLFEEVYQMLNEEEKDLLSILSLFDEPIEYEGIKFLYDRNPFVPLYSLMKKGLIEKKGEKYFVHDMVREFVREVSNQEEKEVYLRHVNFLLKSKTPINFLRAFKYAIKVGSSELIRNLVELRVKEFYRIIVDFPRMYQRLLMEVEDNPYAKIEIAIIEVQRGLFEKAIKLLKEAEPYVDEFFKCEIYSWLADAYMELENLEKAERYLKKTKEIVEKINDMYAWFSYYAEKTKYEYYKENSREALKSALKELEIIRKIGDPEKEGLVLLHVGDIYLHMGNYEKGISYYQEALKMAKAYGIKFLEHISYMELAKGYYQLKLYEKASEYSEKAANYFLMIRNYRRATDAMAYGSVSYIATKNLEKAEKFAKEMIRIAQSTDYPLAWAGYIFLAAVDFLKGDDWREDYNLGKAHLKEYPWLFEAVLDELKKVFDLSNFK", "assay": "X-ray crystal structure", "details": "3.4 Å; ADP present in purification buffer; nucleotide-binding site of the NOD"}, "MalT [1]": {"target": "T2, MalT (Escherichia coli, UniProt P06993, M96C)", "T2 construct": "full-length, His6-tagged (pOM206, pET24a(+) derivative), purified from E. coli BL21 ΔmalT", "T2 sequence (P06993 whole entry M96C)": "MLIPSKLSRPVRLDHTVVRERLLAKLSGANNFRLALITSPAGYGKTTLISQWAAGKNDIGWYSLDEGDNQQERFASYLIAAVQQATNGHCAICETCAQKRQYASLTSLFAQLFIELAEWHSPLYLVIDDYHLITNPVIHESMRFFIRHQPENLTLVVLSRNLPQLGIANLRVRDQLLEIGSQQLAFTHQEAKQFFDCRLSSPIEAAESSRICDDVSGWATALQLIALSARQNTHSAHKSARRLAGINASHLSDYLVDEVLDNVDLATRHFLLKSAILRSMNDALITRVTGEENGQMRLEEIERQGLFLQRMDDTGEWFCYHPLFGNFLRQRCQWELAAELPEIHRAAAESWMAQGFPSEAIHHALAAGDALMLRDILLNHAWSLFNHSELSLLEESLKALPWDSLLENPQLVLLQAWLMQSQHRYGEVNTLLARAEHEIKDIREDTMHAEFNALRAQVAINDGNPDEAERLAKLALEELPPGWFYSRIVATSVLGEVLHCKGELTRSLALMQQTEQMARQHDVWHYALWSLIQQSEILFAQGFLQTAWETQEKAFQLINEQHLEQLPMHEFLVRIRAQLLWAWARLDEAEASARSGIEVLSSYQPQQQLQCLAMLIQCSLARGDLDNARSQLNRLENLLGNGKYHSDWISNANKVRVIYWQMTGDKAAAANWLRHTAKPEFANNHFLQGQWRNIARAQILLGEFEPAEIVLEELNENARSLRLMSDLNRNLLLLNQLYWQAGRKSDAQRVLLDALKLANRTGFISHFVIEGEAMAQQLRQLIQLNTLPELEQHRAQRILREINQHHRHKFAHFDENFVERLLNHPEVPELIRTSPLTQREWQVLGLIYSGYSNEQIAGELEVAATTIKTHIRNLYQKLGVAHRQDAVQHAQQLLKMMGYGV", "assay": "analytical size-exclusion chromatography (multimerization)", "type": "biochemical", "details": "reducing conditions"}, "MalT [2]": {"target": "T3, MalT (Escherichia coli, UniProt P06993)", "T3 construct": "full-length, His6-tagged (pOM206, pET24a(+) derivative), purified from E. coli BL21 ΔmalT", "assay": "analytical size-exclusion chromatography (multimerization) and limited proteolysis", "type": "biochemical", "details": "with ATP; inducer; pH 8.0"}, "MalT [3]": {"target": "T4, MalT (Escherichia coli, UniProt P06993, H562C)", "T4 construct": "full-length, His6-tagged (pOM206, pET24a(+) derivative), purified from E. coli BL21 ΔmalT", "T4 sequence (P06993 whole entry H562C)": "as the sequence (P06993 whole entry M96C) above, with C96M, H562C counted along it", "assay": "analytical size-exclusion chromatography (multimerization)", "type": "biochemical", "details": "reducing conditions"}, "MalT [4]": {"target": "T5, MalT (Escherichia coli, UniProt P06993, R171E)", "T5 construct": "full-length, His6-tagged (pOM206, pET24a(+) derivative), purified from E. coli BL21 ΔmalT", "T5 sequence (P06993 whole entry R171E)": "as the sequence (P06993 whole entry M96C) above, with C96M, R171E counted along it", "assay": "limited proteolysis (proteinase K)", "type": "biochemical", "details": "22 mM maltotriose; 0.44 mM ATP or ADP; pH 8.0, 25 °C"}, "MalT [5]": {"target": "T6, MalT (Escherichia coli, UniProt P06993, M96T/R171E)", "T6 construct": "full-length, His6-tagged (pOM206, pET24a(+) derivative), purified from E. coli BL21 ΔmalT", "T6 sequence (P06993 whole entry M96T/R171E)": "as the sequence (P06993 whole entry M96C) above, with C96T, R171E counted along it", "assay": "limited proteolysis (proteinase K)", "type": "biochemical", "details": "22 mM maltotriose; 0.44 mM ATP or ADP; pH 8.0, 25 °C"}, "[6]": {"target": "the molecule itself", "assay": "SEC; analytical Superdex 200 PC3.2/30, room temperature; reducing conditions; with the inducer maltotriose (Supplementary Figure S9)"}, "[7]": {"target": "the molecule itself", "assay": "SEC; analytical Superdex 200, room temperature; Tris-HCl 50 mM pH 8.0, 10% sucrose, 0.033 M K3 citrate, 10 mM Mg acetate, 0.1 mM EDTA, 1 mM DTT, 0.1 mM ADP; no maltotriose; high protein concentration (54 μM)"}},
  "note": "Where a chain is given by its changes, count along the chain named. Numbers in names are those of the source.",
  "data": [
    {"molecule": "Nc1ncnc2c1ncn2[C@@H]1O[C@H](COP(=O)(O)OP(=O)(O)O)[C@@H](O)[C@H]1O", "note": "[ADP]", "values": [
      {"measurement": "X-ray crystal structure", "setting": "PH0952ΔN", "result": "a ligand was clearly visible in the experimental electron density map"}
    ]},
    {"molecule": "OC[C@H]1O[C@H](O[C@H]2[C@H](O)[C@@H](O)[C@@H](O[C@H]3[C@H](O)[C@@H](O)C(O)O[C@@H]3CO)O[C@@H]2CO)[C@H](O)[C@@H](O)[C@@H]1O", "note": "(some centres unmarked) [maltotriose]", "values": [
      {"measurement": "analytical size-exclusion chromatography (multimerization)", "setting": "MalT [1]", "result": "the four proteins were monomeric in the absence of the inducer, maltotriose"},
      {"measurement": "analytical size-exclusion chromatography (multimerization) and limited proteolys", "setting": "MalT [2]", "result": "responded to its presence by multimerizing to the same extent"},
      {"measurement": "analytical size-exclusion chromatography (multimerization)", "setting": "MalT [3]", "result": "the four proteins were monomeric in the absence of the inducer, maltotriose"},
      {"measurement": "limited proteolysis (proteinase K)", "setting": "MalT [4]", "result": "underwent the same maltotriose-induced conformational changes as MalT"},
      {"measurement": "limited proteolysis (proteinase K)", "setting": "MalT [5]", "result": "underwent the same maltotriose-induced conformational changes as MalT"}
    ]},
    {"molecule": "B1", "values": [
      {"measurement": "binding result", "setting": "[6]", "result": "binds"}
    ]},
    {"molecule": "B2", "values": [
      {"measurement": "binding result", "setting": "[6]", "result": "binds"}
    ]},
    {"molecule": "B3", "values": [
      {"measurement": "binding result", "setting": "[6]", "result": "binds"}
    ]},
    {"molecule": "B4", "values": [
      {"measurement": "binding result", "setting": "[6]", "result": "binds"}
    ]},
    {"molecule": "B5", "values": [
      {"measurement": "binding result", "setting": "[7]", "result": "binds"}
    ]}
  ]
}
